# Results taken from patent US11180487B2, “Substituted cyanoindoline derivatives as NIK inhibitors” (Janssen Pharmaceutica NV, priority 2016, dated 2021).
# Read-outs that look alike come from different tables or passages of the source.
# Assays:
# [1] = molecular target: recombinant human NF-kappaB-inducing kinase (NIK/MAP3K14) (Homo sapiens, UniProt Q99558); experiment: Inhibition of auto-phosphorylation of recombinant human NIK/MAP3K14 activity (AlphaScreen), Biological Assay A; format: biochemical; details: averaged values over all measurements on all batches
# Sequence of recombinant human NF-kappaB-inducing kinase (NIK/MAP3K14) (Q99558 whole entry): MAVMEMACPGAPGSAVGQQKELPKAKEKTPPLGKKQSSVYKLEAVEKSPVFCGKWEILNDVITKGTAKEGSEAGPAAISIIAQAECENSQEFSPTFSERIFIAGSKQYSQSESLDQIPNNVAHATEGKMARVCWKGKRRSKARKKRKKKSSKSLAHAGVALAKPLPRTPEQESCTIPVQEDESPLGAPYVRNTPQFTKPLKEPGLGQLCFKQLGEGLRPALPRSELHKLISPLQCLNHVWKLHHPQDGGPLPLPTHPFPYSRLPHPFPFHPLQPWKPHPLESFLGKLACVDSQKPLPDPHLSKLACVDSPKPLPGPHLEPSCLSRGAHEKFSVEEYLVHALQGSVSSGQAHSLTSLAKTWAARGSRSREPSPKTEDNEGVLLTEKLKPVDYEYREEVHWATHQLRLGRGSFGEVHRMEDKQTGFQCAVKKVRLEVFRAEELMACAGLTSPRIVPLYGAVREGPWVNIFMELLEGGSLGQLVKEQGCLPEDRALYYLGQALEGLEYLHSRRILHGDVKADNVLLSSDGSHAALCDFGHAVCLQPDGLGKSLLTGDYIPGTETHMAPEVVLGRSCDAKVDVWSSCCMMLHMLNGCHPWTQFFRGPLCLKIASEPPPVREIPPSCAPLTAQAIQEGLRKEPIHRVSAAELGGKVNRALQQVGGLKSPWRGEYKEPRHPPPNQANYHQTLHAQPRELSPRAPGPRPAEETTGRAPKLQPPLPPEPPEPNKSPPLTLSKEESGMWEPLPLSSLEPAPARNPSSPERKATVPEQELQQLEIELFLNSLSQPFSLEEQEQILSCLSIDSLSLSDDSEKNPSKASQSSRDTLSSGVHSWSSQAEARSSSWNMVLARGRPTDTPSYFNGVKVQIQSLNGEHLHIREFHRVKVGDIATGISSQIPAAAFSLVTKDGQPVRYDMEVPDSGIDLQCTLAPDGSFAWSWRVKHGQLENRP
# Experimental: Inhibition of Auto-Phosphorylation of Recombinant Human NF-kappaB-Inducing Kinase (NIK/MAP3K14) Activity (AlphaScreen®)
# NIK/MAP3K14 auto-phosphorylation activity was measured using the AlphaScreen® (αscreen) format (Perkin Elmer). All compounds tested were dissolved in dimethyl sulfoxide (DMSO) and further dilutions were made in assay buffer. Final DMSO concentration was 1% (v/v) in assays. Assay buffer was 50 mM Tris pH 7.5 containing 1 mM EGTA (ethylene glycol tetraacetic acid), 1 mM DTT (dithiothreitol), 0.1 mM Na3VO4, 5 mM MgCl2, 0.01% Tween® 20. Assays were carried out in 384 well Alphaplates (Perkin Elmer). Incubations consisted of compound, 25 microM Adenosine-5′-triphosphate (ATP), and 0.2 nM NIK/MAP3K14. Incubations were initiated by addition of GST-tagged NIK/MAP3K14 enzyme, carried out for 1 h at 25° C. and terminated by addition of stop buffer containing anti-phospho-IKK Ser176/180 antibody. Protein A Acceptor and Glutathione-Donor beads were added before reading using an EnVision® Multilabel Plate Reader (Perkin Elmer). Signal obtained in the wells containing blank samples was subtracted from all other wells and IC50's were determined by fitting a sigmoidal curve to % inhibition of control versus Log10 compound concentration.
# [2] = test system: JJN-3 (NIK translocated) multiple myeloma cells; experiment: Antiproliferative activity on JJN-3 multiple myeloma cells (CellTiter-Glo, 96 hr), Biological Assay C; format: cell-based, human; details: JJN-3 (NIK translocated) cells, averaged values, read-out: JJN-3 Proliferation inhibition (IC50 (nM))
# Experimental: (§1) Determination of Antiproliferative Activity on JJN-3 (NIK Translocated) and KMS12-BM (NIK WT) Multiple Myeloma Cells
# (§2) All compounds tested were dissolved in DMSO and further dilutions were made in culture medium. Final DMSO concentration was 0.3% (v/v) in cell proliferation assays. Viability was assessed using CellTiter-Glo cell viability assay kit (Promega). The human JJN-3 and KMS12-BM cells (DSMZ) were cultured in RPMI 1640 medium supplemented with 2 mM L-glutamine, and 10% fetal calf serum (PAA). Cells were routinely kept as suspension cells at 37° C. in a humidified 5% CO2 atmosphere. Cells were passaged at a seeding density of 0.2×10^6/ml twice a week. Cells were seeded in black tissue culture treated 96-well plates (Perkin Elmer). Densities used for plating ranged from 15000 (JJN3) to 20000 (KMS12BM) cells per well in a total volume of 135 μl medium. Drugs and/or solvents were added (15 μl) to a final volume of 150 μl. Following 96 hr of treatment, plates were removed from the incubator and allowed to equilibrate to room temperature for approx 10 min. 75 μl CellTiter-Glo reagent was added to each well that was then covered (Perkin Elmer Topseal) and shaken on plate shaker for 10 min. Luminescence was measured on a HTS Topcount (Perkin Elmer).
# (§3) Within an experiment, the results for each treatment were the mean of 2 replicate wells. For initial screening purposes, compounds were tested using a 9 point dilution curve (serial 1:3 dilutions). For each experiment, controls (containing no drug) and a blank incubation (containing cells read at the time of compound addition) were run in parallel. The blank value was subtracted from all control and sample values. For each sample, the mean value for cell growth (in relative light units) was expressed as a percentage of the mean value for cell growth of the control.
# [3] = test system: P-IKKα levels in L363 (NIK translocated multiple myeloma) cells; experiment: Effect of compounds on P-IKKα levels in L363 cells (Mesoscale sandwich immuno-assay), Biological Assay B; format: cell-based, human; details: 2 hr treatment, averaged values, read-out: Inhibition of pIKKα_L-363 (IC50 (nM))
# Experimental: Effect of Compounds on P-IKKα Levels in L363 (NIK Translocated Multiple Myeloma) Cells
# All compounds tested were dissolved in DMSO and further dilutions were made in culture medium. Final DMSO concentration was 1% (v/v) in cell assays. The human L363 cells (ATCC) were cultured in RPMI 1640 medium supplemented with GlutaMax and 10% fetal calf serum (PAA). Cells were routinely maintained at densities of 0.2×10^6 cells per ml-1×10^6 cells per ml at 37° C. in a humidified 5% CO2 atmosphere. Cells were passaged twice a week splitting back to obtain the low density. Cells were seeded in 96 well plates (Nunc 167008) at 2×10^6 per ml media in a volume of 75 μl per well plus 25 μl 1 μg/ml recombinant human B-cell activating factor (BAFF/BLyS/TNFSF13B). Seeded cells were incubated at 37° C. in a humidified 5% CO2 atmosphere for 24 hr. Drugs and/or solvents were added (20 μl) to a final volume of 120 μl. Following 2 hr treatment plates were removed from the incubator and cell lysis was achieved by the addition of 30 μl 5× lysis buffer followed by shaking on a plate shaker at 4° C. for 10 min. At the end of this incubation lysed cells were centrifuged at 800×g for 20 min at 4° C. and the lysate was assessed for P-IKKα levels by sandwich immuno-assay carried out in anti-rabbit antibody coated Mesoscale plates. Within an experiment, the results for each treatment were the mean of 2 replicate wells. For initial screening purposes, compounds were tested using an 8 point dilution curve (serial 1:3 dilutions). For each experiment, controls (containing MG132 and BAFF but no test drug) and a blank incubation (containing MG132 and BAFF and 10 μM ADS125117, a test concentration known to give full inhibition) were run in parallel. The blank incubation value was subtracted from all control and sample values. To determine the IC50 a sigmoidal curve was fitted to the plot of % inhibition of control P-IKKα levels versus Log10 compound concentration.
# Note: Compounds 237 and 238 were tested at a maximum top concentration of 823 nM.
# [4] = test system: KMS12-BM (NIK WT) multiple myeloma cells; experiment: Antiproliferative activity on KMS12-BM multiple myeloma cells (CellTiter-Glo, 96 hr), Biological Assay C; format: cell-based, human; details: averaged values, read-out: KMS-12 Proliferation inhibition (IC50 (nM))
# Experimental: as §1, §2, §3
Structure (SMILES),IC50 [1] [nM],"IC50 ([2]; Homo sapiens, JJN-3, 96 h) [nM]","IC50 ([3]; Homo sapiens, L-363, 2 h) [nM]","IC50 ([4]; Homo sapiens, KMS-12-BM, 96 h) [nM]",IC50 [3] [nM],IC50 [2] [nM],IC50 [4] [nM],melting point [°C]
COc1cc(S(C)(=O)=O)c(Cl)cc1Nc1nccc(-c2cc(C#N)c3c(c2)C(C)(C)CN3)n1 [Compound 85],11.3,57,41.7,> 10000,,,,
Cc1cc(CCN2CCOCC2)c(C#N)cc1Nc1nccc(-c2cc(C#N)c3c(c2)[C@@](C)(CO)CN3)n1 [Compound 173],1.8,29,1.3,> 10000,,,,
Cc1c(NC(=O)C2CCN(C)CC2)cc(Cl)cc1Nc1nccc(-c2cc(C#N)c3c(c2)[C@@](C)(CO)CN3)n1 [Compound 68],0.8,16,1.9,1480,,,,
COc1cc(N2CCOCC2)c(Cl)cc1Nc1nccc(-c2cc(C#N)c3c(c2)C(C)(C)CN3)n1 [Compound 79],47.9,91,75.9,~5130,,,,
"C[C@]1(CO)CNc2c(C#N)cc(-c3ccnc(Nc4ccccc4C4CCCN4)n3)cc21 (single isomer, unassigned) [Compound 238]",955,,,,> 832,,,
COc1cc(CO)c(Cl)cc1Nc1nccc(-c2cc(C#N)c3c(c2)C(C)(CO)CN3)n1 (stereo not shown) [Compound 24],4.5,13,6,2820,,,,
Cc1ccc(C#N)cc1Nc1ncc(F)c(-c2cc(C#N)c3c(c2)[C@@](C)(CO)CN3)n1 [Compound 147],3.9,302,1.2,> 10000,,,,
CN1CC(F)C(Oc2ccc(C#N)cc2Nc2nccc(-c3cc(C#N)c4c(c3)[C@@](C)(CO)CN4)n2)C1 (stereo partly shown) [Compound 233],4.6,,,,21.4,741,> 10000,
CN1CCC(Oc2ccc(C#N)cc2Nc2nccc(-c3cc(C#N)c4c(c3)[C@@](C)(CO)CN4)n2)C(F)C1 (stereo partly shown) [Compound 231],7.8,,,,12.3,89,> 10000,
C[C@]1(CO)CNc2c(C#N)cc(-c3ccnc(Nc4cc(C#N)ccc4OC4CC4)n3)cc21 [Compound 10],7.4,67,11.5,1230,,,,
Cc1cc(F)c(C#N)cc1Nc1nccc(-c2cc(C#N)c3c(c2)[C@@](C)(CO)CN3)n1 [Compound 11],1.8,617,6,> 10000,,,,
CC(C)(O)COc1ccc(C#N)cc1Nc1nccc(-c2cc(C#N)c3c(c2)[C@@](C)(CO)CN3)n1 [Compound 12],4.1,138,25.7,4900,,,,
CN1CCC(Oc2ccc(Cl)cc2Nc2nccc(-c3cc(C#N)c4c(c3)C(C)(CO)CN4)n2)CC1 (stereo not shown) [Compound 25],3.6,12,33.9,589,,,,
Cc1cc(P(C)(C)=O)c(Cl)cc1Nc1nccc(-c2cc(C#N)c3c(c2)[C@@](C)(CO)CN3)n1 [Compound 20],1.7,63,11.5,~1580,,,,
Cc1ccc(C#N)cc1Nc1nccc(-c2cc(C#N)c3c(c2)[C@](C)(COS(=O)(=O)O)CN3)n1 [Compound 144],5.8,~10000,~1170,> 10000,,,,
Cc1cc(F)c(CO)cc1Nc1nccc(-c2cc(C#N)c3c(c2)[C@@](C)(CO)CN3)n1 [Compound 152],2.3,272,7.8,> 10000,,,,
Cc1ccc(C#N)cc1Nc1nccc(-c2cc(C#N)c3c(c2)[C@@](C)(COC(=O)CN2CCN(C)CC2)CN3)n1 [Compound 145],17.4,,436,,,,,
Cc1ccc(CN2CCOCC2)c(Nc2nccc(-c3cc(C#N)c4c(c3)[C@@](C)(CO)CN4)n2)c1 [Compound 222],31.6,,302,,,,,
Cc1ccc(COC(C)C)cc1Nc1nccc(-c2cc(C#N)c3c(c2)[C@@](C)(CO)CN3)n1 [Compound 149],10,,102,,,,,
"C[C@]1(CO)CNc2c(C#N)cc(-c3ccnc(Nc4ccccc4C4CCCN4)n3)cc21 (single isomer, unassigned) [Compound 237]",214,,> 832,,,,,
Cc1ccc(C2CN(C)C2)cc1Nc1nccc(-c2cc(C#N)c3c(c2)[C@@](C)(CO)CN3)n1 [Compound 210],33.1,,> 10000,,,,,
Cc1c(Nc2nccc(-c3cc(C#N)c4c(c3)C(C)(CO)CN4)n2)cc(Cl)cc1C(=O)N1CCN(C)CC1 (stereo not shown) [Compound 58],2.6,85,,6760,,,,183
COc1cc(C(=O)N2CCNC(C#N)C2)c(Cl)cc1Nc1nccc(-c2cc(C#N)c3c(c2)C(C)(C)CN3)n1 (stereo not shown) [Compound 121],8.5,12,,120,,,,193
COc1cc(C(=O)N2CC3(CCCNC3)C2)c(Cl)cc1Nc1nccc(-c2cc(C#N)c3c(c2)C(C)(C)CN3)n1 [Compound 113],2.6,28,,~407,,,,178
COc1ccc(C#N)cc1Nc1nccc(-c2cc(C#N)c3c(c2)C(C)(CO)CN3)n1 (stereo not shown) [Compound 31],5.3,2340,,> 10000,,,,295
CC1(CO)CNc2c(C#N)cc(-c3ccnc(Nc4cc(Cl)ccc4C(F)(F)F)n3)cc21 (stereo not shown) [Compound 49],24.6,1620,,> 10000,,,,172
Cc1c(Nc2nccc(-c3cc(C#N)c4c(c3)[C@@](C)(CO)CN4)n2)cccc1C(=O)N1CCN(C2CC2)CC1 [Compound 206],5.3,71,,~7240,,,,238
COc1cc(C(=O)N2CC3(CC(O)C3)C2)c(Cl)cc1Nc1nccc(-c2cc(C#N)c3c(c2)C(C)(C)CN3)n1 [Compound 123],8.5,14,,1050,,,,287
